In patent US20220046923A1, “HERBICIDAL CINNOLINIUM COMPOUNDS” (SYNGENTA CROP PROTECTION AG, priority 2018, published 2022):

Experiments:
Assay in all cases: Post-emergence efficacy, glasshouse spray test
Format in all cases: in vivo
Settings in all cases: evaluated after 13 days
[1] = tested on: Ipomoea hederacea (IPOHE)
How it was run: (§1)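 Compound formulated in acetone/IF50 and diluted into 0.25% or 1% Empicol ESC70 with 1% ammonium sulphate was sprayed on glasshouse seedlings 14 days after sowing. Growth continued at 24/16 °C, 14 h light, 65% humidity with twice-daily watering; damage (0–100) scored on day 13.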

[2] = tested on: Euphorbia heterophylla (EPHHL)
How it was run: as §1

Setaria faberi (SETFA) = tested on: Setaria faberi (SETFA)
How it was run: as §1

[3] = tested on: Amaranthus palmeri (AMAPA)
How it was run: as §1

Lolium perenne (LOLPE) = tested on: Lolium perenne (LOLPE)
How it was run: as §1

Eleusine indica (ELEIN) = tested on: Eleusine indica (ELEIN)
How it was run: as §1

[4] = tested on: Digitaria sanguinalis (DIGSA)
How it was run: as §1

[5] = tested on: Echinochloa crus-galli (ECHCG)
How it was run: as §1

[6] = tested on: Chenopodium album (CHEAL)
How it was run: as §1

[7] = Ipomoea hederacea, post-emergence, 312 h, application rate 1000 g/Ha, read-out: Control of weed species IPOHE after post-emergence application (100=total damage to plant; 0=no damage to plant)
[8] = Euphorbia heterophylla, post-emergence, 312 h, application rate 1000 g/Ha, read-out: Control of weed species EPHHL after post-emergence application (100=total damage to plant; 0=no damage to plant)
[9] = Setaria faberi, post-emergence, 312 h, application rate 1000 g/Ha, read-out: Control of weed species SETFA after post-emergence application (100=total damage to plant; 0=no damage to plant)
[10] = Amaranthus palmeri, post-emergence, 312 h, application rate 1000 g/Ha, read-out: Control of weed species AMAPA after post-emergence application (100=total damage to plant; 0=no damage to plant)
[11] = Lolium perenne, post-emergence, 312 h, application rate 1000 g/Ha, read-out: Control of weed species LOLPE after post-emergence application (100=total damage to plant; 0=no damage to plant)
[12] = Eleusine indica, post-emergence, 312 h, application rate 1000 g/Ha, read-out: Control of weed species ELEIN after post-emergence application (100=total damage to plant; 0=no damage to plant)
[13] = Digitaria sanguinalis, post-emergence, 312 h, application rate 1000 g/Ha, read-out: Control of weed species DIGSA after post-emergence application (100=total damage to plant; 0=no damage to plant)
[14] = Echinochloa crus-galli, post-emergence, 312 h, application rate 1000 g/Ha, read-out: Control of weed species ECHCG after post-emergence application (100=total damage to plant; 0=no damage to plant)
[15] = Chenopodium album, post-emergence, 312 h, application rate 1000 g/Ha, read-out: Control of weed species CHEAL after post-emergence application (100=total damage to plant; 0=no damage to plant)

SMILES	pest or weed control at 1000 g/ha [1, 7] [%]	pest or weed control at 1000 g/ha [2, 8] [%]	pest or weed control at 1000 g/ha (Setaria faberi (SETFA); [9]) [%]	pest or weed control at 1000 g/ha [3, 10] [%]	pest or weed control at 1000 g/ha (Lolium perenne (LOLPE); [11]) [%]	pest or weed control at 1000 g/ha (Eleusine indica (ELEIN); [12]) [%]	pest or weed control at 1000 g/ha [4, 13] [%]	pest or weed control at 1000 g/ha [5, 14] [%]	pest or weed control at 1000 g/ha [6, 15] [%]	other results
COC(=O)C[n+]1ccc2cc(C)ccc2n1 [Compound A57]	20	60	30	70	10	60	40	20	40	
O=C([O-])C[C@H](O)C[n+]1ccc2ccccc2n1 [Compound A74, (3S)-4-cinnolin-2-ium-2-yl-3-hydroxy-butanoate]	10	10	0	0	0	0	0	0	0	
O=C(O)CC[n+]1ccc2ccccc2n1 [Compound A65]	60	90	60	80	40	90	90	70	80	
O=S(=O)([O-])CCC[n+]1cc(C(Cl)(Cl)Cl)c2ccccc2n1 [Compound A40]										pest or weed control at 500 g/ha ([1]; Ipomoea hederacea, post-emergence, 312 h, application rate 500 g/Ha, read-out: Control of weed species IPOHE after post-emergence application (100=total damage to plant; 0=no damage to plant)): 50%; pest or weed control at 500 g/ha ([2]; Euphorbia heterophylla, post-emergence, 312 h, application rate 500 g/Ha, read-out: Control of weed species EPHHL after post-emergence application (100=total damage to plant; 0=no damage to plant)): 40%; pest or weed control at 500 g/ha (Setaria faberi (SETFA); Setaria faberi, post-emergence, 312 h, application rate 500 g/Ha, read-out: Control of weed species SETFA after post-emergence application (100=total damage to plant; 0=no damage to plant)): 0%; pest or weed control at 500 g/ha ([3]; Amaranthus palmeri, post-emergence, 312 h, application rate 500 g/Ha, read-out: Control of weed species AMAPA after post-emergence application (100=total damage to plant; 0=no damage to plant)): 50%; pest or weed control at 500 g/ha (Lolium perenne (LOLPE); Lolium perenne, post-emergence, 312 h, application rate 500 g/Ha, read-out: Control of weed species LOLPE after post-emergence application (100=total damage to plant; 0=no damage to plant)): 0%; pest or weed control at 500 g/ha (Eleusine indica (ELEIN); Eleusine indica, post-emergence, 312 h, application rate 500 g/Ha, read-out: Control of weed species ELEIN after post-emergence application (100=total damage to plant; 0=no damage to plant)): 20%; pest or weed control at 500 g/ha ([4]; Digitaria sanguinalis, post-emergence, 312 h, application rate 500 g/Ha, read-out: Control of weed species DIGSA after post-emergence application (100=total damage to plant; 0=no damage to plant)): 10%; pest or weed control at 500 g/ha ([5]; Echinochloa crus-galli, post-emergence, 312 h, application rate 500 g/Ha, read-out: Control of weed species ECHCG after post-emergence application (100=total damage to plant; 0=no damage to plant)): 30%; pest or weed control at 500 g/ha ([6]; Chenopodium album, post-emergence, 312 h, application rate 500 g/Ha, read-out: Control of weed species CHEAL after post-emergence application (100=total damage to plant; 0=no damage to plant)): 50%
O=C([O-])C[n+]1ccc2ccccc2n1 [Compound A2, 2-cinnolin-2-ium-2-ylacetate]	40	90	80	100	20	100	100	100	80	
COc1ccc2n[n+](CC(=O)[O-])ccc2c1 [Compound A68]	20	20	30	60	10	20	30	50	50	
N[C@@H](CCC[n+]1ccc2ccccc2n1)C(=O)[O-].O=C(O)C(F)(F)F [Compound A18]										Control of weed species IPOHE after post-emergence application (100=total damage to plant; 0=no damage to plant) ([1]; application rate 1000 g/Ha): 30; Control of weed species EPHHL after post-emergence application (100=total damage to plant; 0=no damage to plant) ([2]; application rate 1000 g/Ha): 20; Control of weed species SETFA after post-emergence application (100=total damage to plant; 0=no damage to plant) (Setaria faberi (SETFA); application rate 1000 g/Ha): 20; Control of weed species AMAPA after post-emergence application (100=total damage to plant; 0=no damage to plant) ([3]; application rate 1000 g/Ha): 60; Control of weed species LOLPE after post-emergence application (100=total damage to plant; 0=no damage to plant) (Lolium perenne (LOLPE); application rate 1000 g/Ha): 30; Control of weed species ELEIN after post-emergence application (100=total damage to plant; 0=no damage to plant) (Eleusine indica (ELEIN); application rate 1000 g/Ha): 90; Control of weed species DIGSA after post-emergence application (100=total damage to plant; 0=no damage to plant) ([4]; application rate 1000 g/Ha): 40; Control of weed species ECHCG after post-emergence application (100=total damage to plant; 0=no damage to plant) ([5]; application rate 1000 g/Ha): 30; Control of weed species CHEAL after post-emergence application (100=total damage to plant; 0=no damage to plant) ([6]; application rate 1000 g/Ha): 100
Cc1cc2ccccc2n[n+]1CCS(=O)(=O)[O-] [Compound A77, 2-(3-methylcinnolin-2-ium-2-yl)ethanesulfonate]	80	90	30	100	40	90	90	30	100	
